Test results taken from patent publication US20260226493A1, “HERBICIDE RESISTANT PLANTS” (SYNGENTA CROP PROTECTION AG, priority 2023, published 2026).

Assays:
Assay in all cases: BIO3-BIO1 mutant enzyme activity in the presence of herbicide, percentage inhibition (fluorometric DAPA assay)
Assay type in all cases: biochemical
Conditions in all cases: read-out: percentage inhibition
[1] = molecular target: T1, Arabidopsis thaliana BIO3-BIO1 (BioDA) mutants (Arabidopsis thaliana, UniProt B0F481, A609I)
T1 construct: with the predicted N-terminal mitochondrial transit peptide removed; 6xHis-tag (N); thrombin cleavage site (N); made in house; host or cells: E. coli BL21 (DE3) bioA
T1 sequence (B0F481 23-833 A609I): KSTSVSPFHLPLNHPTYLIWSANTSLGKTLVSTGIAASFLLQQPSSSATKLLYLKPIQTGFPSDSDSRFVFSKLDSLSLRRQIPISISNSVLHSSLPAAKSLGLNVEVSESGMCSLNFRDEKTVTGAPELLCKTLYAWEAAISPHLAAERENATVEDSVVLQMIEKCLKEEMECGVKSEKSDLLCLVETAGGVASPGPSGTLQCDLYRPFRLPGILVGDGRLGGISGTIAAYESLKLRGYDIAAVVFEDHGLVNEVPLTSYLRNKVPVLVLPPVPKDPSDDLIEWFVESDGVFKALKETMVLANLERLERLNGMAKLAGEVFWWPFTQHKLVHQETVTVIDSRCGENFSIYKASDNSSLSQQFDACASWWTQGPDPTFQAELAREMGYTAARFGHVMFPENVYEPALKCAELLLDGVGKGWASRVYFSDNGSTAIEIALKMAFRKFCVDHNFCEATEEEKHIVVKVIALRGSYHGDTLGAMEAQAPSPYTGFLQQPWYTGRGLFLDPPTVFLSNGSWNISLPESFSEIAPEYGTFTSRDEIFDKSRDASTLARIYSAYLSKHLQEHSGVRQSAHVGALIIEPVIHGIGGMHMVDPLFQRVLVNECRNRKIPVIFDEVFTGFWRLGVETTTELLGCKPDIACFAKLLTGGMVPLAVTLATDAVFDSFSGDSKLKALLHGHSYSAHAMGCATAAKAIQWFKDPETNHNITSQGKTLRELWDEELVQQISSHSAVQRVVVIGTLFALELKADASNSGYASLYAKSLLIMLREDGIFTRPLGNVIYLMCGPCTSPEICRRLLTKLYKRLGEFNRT
Text: (§1) A pet-24 plasmid containing a DNA sequence encoding each identified variant mutant of BIO3-BIO1 derived from Arabidopsis thaliana from example 5 above, as shown in Table 13 below and as shown in full in SEQ ID NOs: 15 to 155, codon-optimised for expression in E. coli, with an N-terminal 6×His-tag and thrombin cleavage site and under control of a T7 promoter, and was synthesised by Twist Bioscience, in a similar manner to SEQ ID NO:311. These plasmids were then expressed in E. coli BL21 (DE3) bioA with 50 μg/mL kanamycin and 25 μg/mL chloramphenicol selection. Overnight cultures grown at 37° C. were used to inoculate 8×500 mL AIM in shake flasks at a ratio of 1:100. Cultures were grown at 37° C., 200 rpm for 3.5 hours and then overnight at 20° C. Cells were harvested by centrifugation for 30 minutes at 10 000 g. Cells were stored at −80° C. until extraction. 30 g of cell pellet from was thawed in 120 mL of IMAC buffer A (20 mM HEPES pH7.5, 25 mM imidazole, 500 mM sodium chloride, 0.15 mM pyridoxal phosphate, 0.5 mM TCEP, 1× complete Protease Inhibitor Tablet (Roche)). The resuspension was passed through a cell disrupter at 18 000 PSI and centrifuged at 50 000 g for 25 minutes at 4° C. The His-tagged BIO3-BIO1 protein was purified from the extract supernatant on an AKTA avant chromatography system (Cytiva) using a HisTrap FF column and eluted in IMAC buffer B ((20 mM HEPES pH7.5, 500 mM imidazole, 500 mM sodium chloride, 0.15 mM pyridoxal phosphate, 0.5 mM TCEP) followed by SEC using a HiLoad 26/60 Superdex200 column in SEC buffer (25 mM HEPES pH7.5, 150 mM sodium chloride, 0.15 mM pyridoxal phosphate, 0.5 mM TCEP). Protein concentration was measured and calculated using the absorbance at 280 nm. Extracts were diluted 1 in 4 and 10 uL was analysed by SDS PAGE.
(§2) To measure BIO3-BIO1 mutant enzyme activity in the presence of herbicide, herbicides were incubated with 20 μL of enzyme mix (100 mM EPPS pH 8.6, 0.1 mM pyridoxal phosphate, 0.1 mg/mL BSA, 50 nM BIO3-BIO1 enzyme) for 10 minutes at 20° C. in a well of a 96-well half-area black plate, followed by the addition of 20 μL of substrate mix (final concentration of 100 mM EPPS pH 8.6, 0.1 mM pyridoxal phosphate, 0.1 mg/mL BSA, 100 μM spermidine, 20 μM KAPA, 100 mM NaCO3) and further incubation for 75 minutes at 20° C. The reaction was terminated by the addition of 50 μL of derivatisation mix (final concentration of 250 mM borate NaOH pH 9.4, 3.6 mM o-phthalaldehyde, 7 mM β-mercaptoethanol, 17% (v/v) ethanol, 3.6% (v/v) methanol). The fluorescent product produced by the reaction of DAPA with o-phthalaldehyde and 7 mM β-mercaptoethanol was measured at 470 nm after excitation at 410 nm. The percentage inhibition was calculated as the activity in the presence of one of three concentrations of each herbicide compound A to M (note that the compounds labelled as A to M are identified hereinabove in the relevant section of the description) as a percentage of the activity in DMSO (Table 12 and 13). The percentage activity versus WT was also calculated and is shown in Table 13 and 14 (NT indicates mutation not tested in table 13, note that these mutations are tested at different compound concentrations for compounds L, M and C, and the results are shown in table 14).

[2] = molecular target: T2, Arabidopsis thaliana BIO3-BIO1 (BioDA) mutants (Arabidopsis thaliana, UniProt B0F481, A609K)
T2 construct: with the predicted N-terminal mitochondrial transit peptide removed; 6xHis-tag (N); thrombin cleavage site (N); made in house; host or cells: E. coli BL21 (DE3) bioA
T2 sequence (B0F481 23-833 A609K): as the sequence (B0F481 23-833 A609I) above, with I587K counted along it
Text: as §1, §2

[3] = molecular target: T3, Arabidopsis thaliana BIO3-BIO1 (BioDA) mutants (Arabidopsis thaliana, UniProt B0F481, C388D)
T3 construct: with the predicted N-terminal mitochondrial transit peptide removed; 6xHis-tag (N); thrombin cleavage site (N); made in house; host or cells: E. coli BL21 (DE3) bioA
T3 sequence (B0F481 23-833 C388D): as the sequence (B0F481 23-833 A609I) above, with C366D, I587A counted along it
Text: as §1, §2

[4] = molecular target: T4, Arabidopsis thaliana BIO3-BIO1 (BioDA) mutants (Arabidopsis thaliana, UniProt B0F481, G513L)
T4 construct: with the predicted N-terminal mitochondrial transit peptide removed; 6xHis-tag (N); thrombin cleavage site (N); made in house; host or cells: E. coli BL21 (DE3) bioA
T4 sequence (B0F481 23-833 G513L): as the sequence (B0F481 23-833 A609I) above, with G491L, I587A counted along it
Text: as §1, §2

[5] = molecular target: T5, Arabidopsis thaliana BIO3-BIO1 (BioDA) mutants (Arabidopsis thaliana, UniProt B0F481, M419I)
T5 construct: with the predicted N-terminal mitochondrial transit peptide removed; 6xHis-tag (N); thrombin cleavage site (N); made in house; host or cells: E. coli BL21 (DE3) bioA
T5 sequence (B0F481 23-833 M419I): as the sequence (B0F481 23-833 A609I) above, with M397I, I587A counted along it
Text: as §1, §2

[6] = molecular target: T6, Arabidopsis thaliana BIO3-BIO1 (BioDA) mutants (Arabidopsis thaliana, UniProt B0F481, P510C)
T6 construct: with the predicted N-terminal mitochondrial transit peptide removed; 6xHis-tag (N); thrombin cleavage site (N); made in house; host or cells: E. coli BL21 (DE3) bioA
T6 sequence (B0F481 23-833 P510C): as the sequence (B0F481 23-833 A609I) above, with P488C, I587A counted along it
Text: as §1, §2

[7] = molecular target: T7, Arabidopsis thaliana BIO3-BIO1 (BioDA) mutants (Arabidopsis thaliana, UniProt B0F481, Q350H)
T7 construct: with the predicted N-terminal mitochondrial transit peptide removed; 6xHis-tag (N); thrombin cleavage site (N); made in house; host or cells: E. coli BL21 (DE3) bioA
T7 sequence (B0F481 23-833 Q350H): as the sequence (B0F481 23-833 A609I) above, with Q328H, I587A counted along it
Text: as §1, §2

[8] = molecular target: T8, Arabidopsis thaliana BIO3-BIO1 (BioDA) mutants (Arabidopsis thaliana, UniProt B0F481, Q350S)
T8 construct: with the predicted N-terminal mitochondrial transit peptide removed; 6xHis-tag (N); thrombin cleavage site (N); made in house; host or cells: E. coli BL21 (DE3) bioA
T8 sequence (B0F481 23-833 Q350S): as the sequence (B0F481 23-833 A609I) above, with Q328S, I587A counted along it
Text: as §1, §2

[9] = molecular target: T9, Arabidopsis thaliana BIO3-BIO1 (BioDA) mutants (Arabidopsis thaliana, UniProt B0F481, S704H)
T9 construct: with the predicted N-terminal mitochondrial transit peptide removed; 6xHis-tag (N); thrombin cleavage site (N); made in house; host or cells: E. coli BL21 (DE3) bioA
T9 sequence (B0F481 23-833 S704H): as the sequence (B0F481 23-833 A609I) above, with I587A, S682H counted along it
Text: as §1, §2

[10] = molecular target: T10, Arabidopsis thaliana BIO3-BIO1 (BioDA) mutants (Arabidopsis thaliana, UniProt B0F481, V354E)
T10 construct: with the predicted N-terminal mitochondrial transit peptide removed; 6xHis-tag (N); thrombin cleavage site (N); made in house; host or cells: E. coli BL21 (DE3) bioA
T10 sequence (B0F481 23-833 V354E): as the sequence (B0F481 23-833 A609I) above, with V332E, I587A counted along it
Text: as §1, §2

[11] = molecular target: T11, Arabidopsis thaliana BIO3-BIO1 (BioDA) mutants (Arabidopsis thaliana, UniProt B0F481, W391L)
T11 construct: with the predicted N-terminal mitochondrial transit peptide removed; 6xHis-tag (N); thrombin cleavage site (N); made in house; host or cells: E. coli BL21 (DE3) bioA
T11 sequence (B0F481 23-833 W391L): as the sequence (B0F481 23-833 A609I) above, with W369L, I587A counted along it
Text: as §1, §2

[12] = molecular target: T12, Arabidopsis thaliana BIO3-BIO1 (BioDA) mutants (Arabidopsis thaliana, UniProt B0F481, Y511V)
T12 construct: with the predicted N-terminal mitochondrial transit peptide removed; 6xHis-tag (N); thrombin cleavage site (N); made in house; host or cells: E. coli BL21 (DE3) bioA
T12 sequence (B0F481 23-833 Y511V): as the sequence (B0F481 23-833 A609I) above, with Y489V, I587A counted along it
Text: as §1, §2

CCOC(=O)c1nn(-c2ccc3c(c2)OC(F)(F)C(F)(F)O3)c2cccc(C(C)=O)c2c1=O [Compound A, ethyl 5-acetyl-4-oxo-1-(2,2,3,3-tetrafluoro-1,4-benzodioxin-6-yl)cinnoline-3-carboxylate]
inhibition at 1 µM [1]: 24%
inhibition at 1 µM [2]: 18%
inhibition at 1 µM [3]: 14%
inhibition at 1 µM [4]: 89%
inhibition at 1 µM [5]: 7%
inhibition at 1 µM [6]: 20%
inhibition at 1 µM [7]: 23%
inhibition at 1 µM [8]: 42%
inhibition at 1 µM [9]: 0%
inhibition at 1 µM [10]: 25%
inhibition at 1 µM [11]: 62%
inhibition at 1 µM [12]: 45%

CCn1c(C)c(-c2ccc(F)cc2F)c(=O)c(C(=O)O)c1-c1ccc(Cl)c(Cl)c1 [Compound C, 2-(3,4-dichlorophenyl)-5-(2,4-difluorophenyl)-1-ethyl-6-methyl-4-oxo-pyridine-3-carboxylic acid]
inhibition at 0.2 µM [1]: 7%
inhibition at 1 µM [1]: 24%
inhibition at 5 µM [1]: 42%
inhibition at 0.2 µM [2]: 65%
inhibition at 1 µM [2]: 80%
inhibition at 5 µM [2]: 87%
inhibition at 0.2 µM [3]: 5%
inhibition at 1 µM [3]: 0%
inhibition at 5 µM [3]: 9%
inhibition at 0.2 µM [4]: 69%
inhibition at 1 µM [4]: 92%
inhibition at 5 µM [4]: 98%
inhibition at 0.2 µM [5]: 1%
inhibition at 1 µM [5]: 7%
inhibition at 5 µM [5]: 53%
inhibition at 0.2 µM [6]: 13%
inhibition at 1 µM [6]: 53%
inhibition at 5 µM [6]: 78%
inhibition at 0.2 µM [7]: 0%
inhibition at 1 µM [7]: 2%
inhibition at 5 µM [7]: 25%
inhibition at 0.2 µM [8]: 2%
inhibition at 1 µM [8]: 35%
inhibition at 5 µM [8]: 66%
inhibition at 0.2 µM [9]: 0%
inhibition at 1 µM [9]: 0%
inhibition at 5 µM [9]: 0%
inhibition at 0.2 µM [10]: 0%
inhibition at 1 µM [10]: 0%
inhibition at 5 µM [10]: 39%
inhibition at 0.2 µM [11]: 23%
inhibition at 1 µM [11]: 29%
inhibition at 5 µM [11]: 33%
inhibition at 0.2 µM [12]: 28%
inhibition at 1 µM [12]: 94%
inhibition at 5 µM [12]: 97%

CCn1c(Cn2ccc(C(F)(F)F)n2)cc(=O)c(C(=O)O)c1-c1ccc(Cl)c(Cl)c1 [Compound L, 2-(3,4-dichlorophenyl)-1-ethyl-4-oxo-6-[[3-(trifluoromethyl)pyrazol-1-yl]methyl]pyridine-3-carboxylic acid]
inhibition at 0.01 µM [1]: 29%
inhibition at 0.075 µM [1]: 20%
inhibition at 0.5 µM [1]: 0%
inhibition at 0.01 µM [2]: 36%
inhibition at 0.075 µM [2]: 52%
inhibition at 0.5 µM [2]: 64%
inhibition at 0.01 µM [3]: 0%
inhibition at 0.075 µM [3]: 0%
inhibition at 0.5 µM [3]: 6%
inhibition at 0.01 µM [4]: 58%
inhibition at 0.075 µM [4]: 88%
inhibition at 0.5 µM [4]: 97%
inhibition at 0.01 µM [5]: 6%
inhibition at 0.075 µM [5]: 1%
inhibition at 0.5 µM [5]: 30%
inhibition at 0.01 µM [6]: 0%
inhibition at 0.075 µM [6]: 38%
inhibition at 0.5 µM [6]: 77%
inhibition at 0.01 µM [7]: 0%
inhibition at 0.075 µM [7]: 16%
inhibition at 0.5 µM [7]: 38%
inhibition at 0.01 µM [8]: 11%
inhibition at 0.075 µM [8]: 38%
inhibition at 0.5 µM [8]: 59%

CCn1c(-c2ccc(Cl)c(Cl)c2)c(C(=O)O)c(=O)c2cc(F)ccc21 [Compound M, 2-(3,4-dichlorophenyl)-1-ethyl-6-fluoro-4-oxo-quinoline-3-carboxylic acid]
inhibition at 0.2 µM [1]: 2%
inhibition at 1 µM [1]: 0%
inhibition at 5 µM [1]: 78%
inhibition at 0.2 µM [2]: 0%
inhibition at 1 µM [2]: 78%
inhibition at 5 µM [2]: 92%
inhibition at 0.2 µM [3]: 0%
inhibition at 1 µM [3]: 0%
inhibition at 5 µM [3]: 0%
inhibition at 0.2 µM [4]: 54%
inhibition at 1 µM [4]: 85%
inhibition at 5 µM [4]: 97%
inhibition at 0.2 µM [5]: 2%
inhibition at 1 µM [5]: 21%
inhibition at 5 µM [5]: 20%
inhibition at 0.2 µM [6]: 9%
inhibition at 1 µM [6]: 36%
inhibition at 5 µM [6]: 69%
inhibition at 0.2 µM [7]: 0%
inhibition at 1 µM [7]: 8%
inhibition at 5 µM [7]: 20%
inhibition at 0.2 µM [8]: 4%
inhibition at 1 µM [8]: 22%
inhibition at 5 µM [8]: 44%
inhibition at 0.2 µM [9]: 0%
inhibition at 1 µM [9]: 0%
inhibition at 5 µM [9]: 0%
inhibition at 0.2 µM [10]: 0%
inhibition at 1 µM [10]: 0%
inhibition at 5 µM [10]: 23%
inhibition at 0.2 µM [11]: 18%
inhibition at 1 µM [11]: 16%
inhibition at 5 µM [11]: 43%
inhibition at 0.2 µM [12]: 33%
inhibition at 1 µM [12]: 88%
inhibition at 5 µM [12]: 99%
